Measurements taken from ChEMBL document CHEMBL5352409, “Design, synthesis, and pharmacological evaluation of 2-(1-(1,3,4-thiadiazol-2-yl)piperidin-4-yl)ethan-1-ol analogs as novel glutaminase 1 inhibitors” (Eur J Med Chem, 2022).
The source made the active and inactive calls. No cut-off for these calls is given here.

What was measured:
[1] = species on record: Homo sapiens; experiment: Selectivity ratio of IC50 for GLS2 (unknown origin) to IC50 for GLS1 (unknown origin)
[2] = test system: A549; experiment: Inhibition of glutaminase in human A549 cells assessed as ratio of glutamine to glutamate level (Rv b= 0.45 +/- 0.011); assay type: cell-based
[3] = Terminal half life in rat at 3 mg/kg, iv; assay type: ADME, organism-based; details: in vivo, read-out: beta t1/2 (converted)
[4] = Cmax in rat at 3 mg/kg, po; assay type: ADME, organism-based; design: dose 3 mg/kg, route po; details: in vivo
[5] = AUC(0 to t) in rat at 3 mg/kg, po; assay type: ADME, organism-based; design: dose 3 mg/kg, route po; details: in vivo
[6] = test system: A549; experiment: Inhibition of colony formation in human A549 cells at 2 to 8 uM; assay type: functional, cell-based; details: dose 2-8 µM
[7] = test system: HCT-116; experiment: Inhibition of colony formation in human HCT-116 cells at 2 to 8 uM; assay type: functional, cell-based; details: dose 2-8 µM
[8] = test system: A549; experiment: Induction of cell cycle arrest in human A549 cells assessed as accumulation at G1 phase incubated for 48 hrs by propidium iodide staining based flow cytometry analysis; assay type: functional; details: dose 50-800 nM
[9] = test system: A549; experiment: Induction of cell cycle arrest in human A549 cells assessed as accumulation of cells at G0/G1 phase at 100 nM incubated for 48 hrs by propidium iodide staining based flow cytometry analysis (Rvb=61.61%); assay type: functional
[10] = test system: A549; experiment: Induction of cell cycle arrest in human A549 cells assessed as accumulation of cells at G0/G1 phase at 200 nM incubated for 48 hrs by propidium iodide staining based flow cytometry analysis (Rvb=61.61%); assay type: functional
[11] = test system: A549; experiment: Induction of cell cycle arrest in human A549 cells assessed as accumulation of cells at G2/M phase at 50 nM incubated for 48 hrs by propidium iodide staining based flow cytometry analysis (Rvb=23.88%); assay type: functional
[12] = test system: A549; experiment: Induction of cell cycle arrest in human A549 cells assessed as accumulation of cells at G2/M phase at 100 nM incubated for 48 hrs by propidium iodide staining based flow cytometry analysis (Rvb=23.88%); assay type: functional
[13] = test system: A549; experiment: Induction of cell cycle arrest in human A549 cells assessed as accumulation of cells at G2/M phase at 200 nM incubated for 48 hrs by propidium iodide staining based flow cytometry analysis (Rvb=23.88%); assay type: functional
[14] = test system: A549; experiment: Induction of cell cycle arrest in human A549 cells assessed as accumulation of cells at G2/M phase at 800 nM incubated for 48 hrs by propidium iodide staining based flow cytometry analysis (Rvb=23.88%); assay type: functional
[15] = test system: A549; experiment: Induction of cell cycle arrest in human A549 cells assessed as accumulation of cells at S phase at 200 nM incubated for 48 hrs by propidium iodide staining based flow cytometry analysis (Rvb=14.51%); assay type: functional
[16] = test system: A549; experiment: Induction of cell cycle arrest in human A549 cells assessed as accumulation of cells at S phase at 400 nM incubated for 48 hrs by propidium iodide staining based flow cytometry analysis (Rvb=14.51%); assay type: functional
[17] = test system: HCT-116; experiment: Induction of intracellular ROS production in human HCT-116 cells by DCFH-DA staining based fluorescence microscopic analysis; assay type: functional, cell-based; details: dose 1-10 µM
[18] = test system: A549; experiment: Induction of apoptosis in human A549 cells assessed as early apoptotic cells at 1 uM incubated for 48 hrs by annexin V-FITC and propidium iodide based flow cytometry analysis (Rvb =12.289%); assay type: functional
[19] = Toxicity in human A549 cells xenografted in mouse assessed as body weight loss at 100 mg/kg administered via oral gavage for 28 days relative to control; assay type: organism-based; details: in vivo, 672 h, time 28 day
[20] = test system: HCT-116; experiment: cells; details: Homo sapiens
[21] = in vitro; details: human, liver microsomes

Ratio IC50 [1]: > 100
half-life [3]: 9.9 h
Cmax [4]: 41.3 ng/mL
AUCt [5]: 251.6 ng·h/mL
IC50 [20]: 420 nM
half-life [21]: > 2 h
SMILES: CCCCCCN1CCC(CNC(=O)c2cccc(COCCC3CCN(c4nnc(NC(=O)Cc5ccccc5)s4)CC3)c2)CC1
Ratio [2]: 1.32
inhibition [6]: Active
inhibition [7]: Active
Activity [8]: Dose-Dependent Effect
Activity [9]: 64.94%
Activity [10]: 66.93%
Activity [11]: 24.1%
Activity [12]: 17.3%
Activity [13]: 19.72%
Activity [14]: 19.67%
Activity [15]: 13.34%
Activity [16]: 13.76%
Activity [17]: Dose-Dependent Effect
Activity [18]: 14.845%
Activity [19]: Non-Toxic
